Source: patent US20240182444A1, “ANTI-VIRAL COMPOUNDS” (Aligos Therapeutics, Inc., priority 2022, published 2024)
Read-outs that look alike come from different tables or passages of the source.

Key:
[1] = in vitro; settings: human
[2] = test system: SARS-CoV-2 B.1.1.7 lineage; experiment: microbe, parasite or virus in culture; assay type: cell-based; settings: Severe acute respiratory syndrome coronavirus 2, 96 h; read-out: A549-dual_ACE2_TMPRSS2 (EC50)
[3] = biological target: T1, SARS-Cov-2 3CLpro (Severe acute respiratory syndrome coronavirus 2, UniProt P0DTD1); experiment: SARS-Cov-2 3CLpro protease assay (SAMDI-MS); assay type: biochemical
T1 construct: 3CLpro was added using a Multidrop Combi

[4] = 30 mins preincubation, duplex peptide substrates, read-out: SARS-Cov-2 (3CLpro IC50)

N#CC(NC(=O)C1[C@@H]2[C@H](CN1C(=O)c1cnn(-c3ccccc3C(F)(F)F)c1)[C@H]1C[C@@H]2[C@H](F)C1)c1cncc2ccccc12 (stereo partly drawn) [Compound 12, (1S,2R,3S,6R,7S,9R)—N-[cyano(isoquinolin-4-yl)methyl]-9-fluoro-4-{1-[2-(trifluoromethyl)phenyl]pyrazole-4-carbonyl}-4-azatricyclo[5.2.1.0^{2,6}]decane-3-carboxamide]
CC50 [1]: > 1000 nM | EC50 [2]: ≥ 1000 nM | IC50 [3, 4]: 20 to 200 nM

CC(C)(C)[C@H](NC(=O)C(F)(F)F)C(=O)N1C[C@@H]2[C@@H]3CC([C@@H]2[C@H]1C(=O)NC(C#N)c1cnn(-c2ccccc2)c1)[C@H](F)C3 (stereo partly drawn) [Compound 13]
IC50 [3, 4]: 200 to 2000 nM

CC(C)(C)[C@H](NC(=O)C(F)(F)F)C(=O)N1C[C@@H]2[C@@H]3C[C@H]([C@@H]2[C@H]1C(=O)NC(C#N)c1cnn(-c2ccccc2)c1)[C@H](F)C3 (stereo partly drawn) [Compound 13]
CC50 [1]: > 1000 nM | EC50 [2]: ≥ 1000 nM

CC(C)(C)[C@H](NC(=O)C(F)(F)F)C(=O)N1C[C@@H]2[C@@H]3CC([C@@H]2[C@H]1C(=O)NC(C#N)c1cncc(-c2ccccc2)c1)[C@H](F)C3 (stereo partly drawn) [Compound 14]
IC50 [3, 4]: < 20 nM

CC(C)(C)[C@H](NC(=O)C(F)(F)F)C(=O)N1C[C@H]2[C@@H]([C@H]1C(=O)NC(C#N)c1cccc3ccccc13)[C@H]1C=C[C@@H]2C1 (stereo partly drawn) [Compound 16]
CC50 [1]: > 1000 nM | EC50 [2]: ≥ 1000 nM | IC50 [3, 4]: 200 to 2000 nM

Cc1ncc2ccccc2c1C(C#N)NC(=O)[C@@H]1[C@@H]2[C@H](CN1C(=O)[C@@H](NC(=O)C(F)(F)F)C(C)(C)C)[C@@H]1C=C[C@H]2C1 (stereo partly drawn) [Compound 21]
CC50 [1]: > 1000 nM | EC50 [2]: ≥ 1000 nM | IC50 [3, 4]: 2000 to 20000 nM

CC(C)(C)[C@H](NC(=O)C(F)(F)F)C(=O)N1C[C@@H]2[C@H]3C[C@@H]([C@@H]2[C@H]1C(=O)NC(C#N)c1cncn1-c1ccccc1)[C@H](F)C3 (stereo partly drawn) [Compound 23]
CC50 [1]: > 1000 nM | EC50 [2]: ≥ 1000 nM | IC50 [3, 4]: 20 to 200 nM | IC50 ([3]; bound given in table footnote, read-out: SARS-Cov-2 activity (footnote of Table 1)): > 500 nM

C#CC(NC(=O)[C@@H]1[C@@H]2[C@H](CN1C(=O)[C@@H](NC(=O)C(F)(F)F)C(C)(C)C)[C@H]1C[C@@H]2[C@H](F)C1)c1cncc2ccccc12 (stereo partly drawn) [Compound 32, (1S,3aR,4S,6R,7S,7aR)-2-((S)-3,3-dimethyl-2-(2,2,2-trifluoroacetamido)butanoyl)-6-fluoro-N-(1-(isoquinolin-4-yl)prop-2-yn-1-yl)octahydro-1H-4,7-methanoisoindole-1-carboxamide]
IC50 [3, 4]: 20 to 200 nM
